The values that follow come from US20240383904A1, “HETEROCYCLIC COMPOUNDS” (Hoffmann-La Roche Inc., priority 2021, published 2024).

The target in this test is T1, MAGL (Homo sapiens, UniProt Q99685).
T1 sequence (Q99685 1-303): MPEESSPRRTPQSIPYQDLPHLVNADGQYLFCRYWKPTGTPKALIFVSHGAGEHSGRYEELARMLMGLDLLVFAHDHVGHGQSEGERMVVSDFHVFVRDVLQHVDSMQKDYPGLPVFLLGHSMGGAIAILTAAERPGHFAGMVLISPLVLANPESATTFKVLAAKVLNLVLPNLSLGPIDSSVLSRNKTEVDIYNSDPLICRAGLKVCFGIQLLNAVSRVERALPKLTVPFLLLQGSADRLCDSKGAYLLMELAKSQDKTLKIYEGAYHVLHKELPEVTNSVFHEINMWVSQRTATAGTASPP
The experiment in a line: 2-AG assay: MAGL inhibitory activity by hydrolysis of 2-arachidonoylglycerol to arachidonic acid, followed by mass spectrometry. The format is biochemical. The conditions noted are these: 15 min preincubation, 30 min reaction at RT, 8 μM 2-arachidonoylglycerol.

Turning to `O=C1NC2(CO1)CN(C(=O)N1CC3(CC[C@@H](Cc4cnc(C(F)(F)F)cn4)C3)C1)C2` [Example 113, 2-[(6R)-6-[[5-(trifluoromethyl)pyrazin-2-yl]methyl]-2-azaspiro[3.4]octane-2-carbonyl]-7-oxa-2,5-diazaspiro[3.4]octan-6-one], the IC50 (commonly the concentration that gives 50% inhibition) is 0.62 nM. With `O=C1NC2(CO1)CN(C(=O)N1CC3(CCC(NS(=O)(=O)c4cccc(OC(F)(F)F)c4)CC3)C1)C2` [Example 114, N-[2-(6-keto-7-oxa-2,5-diazaspiro[3.4]octane-2-carbonyl)-2-azaspiro[3.5]nonan-7-yl]-3-(trifluoromethoxy)benzene-sulfonamide] the figure was 0.63 nM; with `O=C1NC2(CO1)CN(C(=O)N1CC3(CC(c4ccc(F)cc4)C3)C1)C2` [Example 115, 2-[6-(4-fluorophenyl)-2-azaspiro[3.3]heptane-2-carbonyl]-7-oxa-2,5-diazaspiro[3.4]octan-6-one], 1.02 nM; with `O=C1CCC2(CN(C(=O)N3CC4(CCC(NS(=O)(=O)c5cccc(OC(F)(F)F)c5)CC4)C3)C2)N1` [Example 116, N-[2-(6-keto-2,5-diazaspiro[3.4]octane-2-carbonyl)-2-azaspiro[3.5]nonan-7-yl]-3-(trifluoromethoxy)benzene-sulfonamide], 1.73 nM. For `CS(=O)(=O)c1cc(C(F)(F)F)ccc1C1CC2(C1)CN(C(=O)N1CC3(COC(=O)N3)C1)C2` [Example 117], the IC50 was 1.96 nM. In turn, `CS(=O)(=O)c1ccc(O[C@H]2CCC3(C2)CN(C(=O)N2CC4(COC(=O)N4)C2)C3)cc1C(F)(F)F` [Example 118, 2-[(6S)-6-[4-mesy1-3-(trifluoromethyl)phenoxy]-2-azaspiro[3.4]octane-2-carbonyl]-7-oxa-2,5-diazaspiro[3.4]octan-6-one] yielded an IC50 of 2.49 nM. `O=C1NC2(CO1)CN(C(=O)N1CC3(CC(NCC4(C(F)(F)F)CC4)C3)C1)C2` [Example 119, 2-[6-[[1-(trifluoromethyl)cyclopro-pyl]methylamino]-2-azaspiro[3.3]heptane-2-carbonyl]-7-oxa-2,5-diazaspiro[3.4]octan-6-one] registered an IC50 of 2.93 nM. As for `O=C1CCC2(CN(C(=O)N3CC4(CCC(Cc5ccc(Cl)cn5)CC4)C3)C2)N1` [Example 120, 2-[7-[(5-chloro-2-pyridyl)methyl]-2-azaspiro[3.5]nonane-2-carbonyl]-2,5-diazaspiro[3.4]octan-6-one], the figure is 2.95 nM; as for `O=C1CCC2(CN(C(=O)N3CC4(CCC(Cc5ccc(OC(F)F)nc5)CC4)C3)C2)N1` [Example 121, 2-[7-[[6-(difluoromethoxy)-3-pyridyl]methyl]-2-azaspiro[3.5]nonane-2-carbonyl]-2,5-diazaspiro[3.4]octan-6-one], 4.19 nM; as for `CS(=O)(=O)c1ccc(Cl)cc1OC1CCC2(CC1)CN(C(=O)N1CC3(COC(=O)N3)C1)C2` [Example 122, 2-[7-(5-chloro-2-mesyl-phenoxy)-2-azaspiro[3.5]nonane-2-carobnyl]-7-oxa-2,5-diazaspiro[3.4]octan-6-one], 4.33 nM. With `O=C1NC2(CO1)CN(C(=O)N1CC3(CCC(Oc4ncc(C(F)(F)F)cn4)CC3)C1)C2` [Example 123, 2-[7-[5-(trifluoromethyl)pyrimi-din-2-yl]oxy-2-azaspiro[3.5]nonane-2-carbonyl]-7-oxa-2,5-diazaspiro[3.4]octan-6-one] the figure was 4.43 nM. With `CS(=O)(=O)c1ccc(C2CC3(C2)CN(C(=O)N2CC4(COC(=O)N4)C2)C3)cc1` [Example 124, 2-[6-(4-mesylphenyl)-2-azaspiro[3.3]heptane-2-carbonyl]-7-oxa-2,5-diazaspiro[3.4]octan-6-one], the IC50 worked out at 4.54 nM. As for `O=C1CCC2(CN(C(=O)N3CC4(CCC(Cc5ncc(F)cc5F)CC4)C3)C2)N1` [Example 125, 2-[7-[(3,5-difluoro-2-pyridyl)methyl]-2-azaspiro[3.5]nonane-2-carbonyl]-2,5-diazaspiro[3.4]octan-6-one], the figure is 5.81 nM. With `O=C1NC2(CO1)CN(C(=O)N1CC3(CC(c4cncc(F)c4)C3)C1)C2` [Example 126, 2-[6-(5-fluoro-3-pyridyl)-2-azaspiro[3.3]heptane-2-carbonyl]-7-oxa-2,5-diazaspiro[3.4]octan-6-one] the figure was 21.3 nM; with `O=C1NCC2(CN(C(=O)N3CC4(CCC(OCC5(C(F)(F)F)CC5)CC4)C3)C2)N1` [Example 127, 2-[7-[[1-(trifluoromethyl)cyclopro-pyl]methoxy]-2-azaspiro[3.5]nonane-2-carbonyl]-2,5,7-triazaspiro[3.4]octan-6-one], 30.8 nM. As for `O=C1NCC2(CN(C(=O)N3CC4(CCC(Cc5ccc(OC(F)F)nc5)CC4)C3)C2)N1` [Example 128, 2-[7-[[6-(difluoromethoxy)-3-pyridyl]methyl]-2-azaspiro[3.5]nonane-2-carbonyl]-2,5,7-triazaspiro[3.4]octan-6-one], the figure is 51.9 nM; as for `O=C1CCC2(CN(C(=O)N3CC4(CCC(Nc5cnc(C(F)(F)F)cn5)CC4)C3)C2)N1` [Example 129, 2-[7-[[5-(trifluoromethyl)pyrazin-2-yl]amino]-2-azaspiro[3.5]nonane-2-carbonyl]-2,5-diazaspiro[3.4]octan-6-one], 66.7 nM. For the molecule `O=C1NC2(CCO1)CN(C(=O)N1CC3(CCC(OCC4(C(F)(F)F)CC4)CC3)C1)C2` [Example 130, 2-[7-[[1-(trifluoromethyl)cyclopro-pyl]methoxy]-2-azaspiro[3.5]nonane-2-carbonyl]-7-oxa-2,5-diazaspiro[3.5]nonan-6-one], the IC50 was 186 nM.

`O=C1CCC2(CN(C(=O)N3CC4(CC(n5cnc(C6CC6)n5)C4)C3)C2)N1` [Example 131, 2-[6-(3-cyclopropyl-1,2,4-triazol-1-yl)-2-azaspiro[3.3]heptane-2-carbonyl]-2,5-diazaspiro[3.4]octan-6-one] returned an IC50 of 209 nM. With `O=C1CCC2(CN(C(=O)N3CC4(CCN(Cc5ccc(C(F)(F)F)cc5F)CC4)C3)C2)N1` [Example 132] the figure was 0.79 nM; with `O=C1COCC2(CN(C(=O)N3CC4(CCC(Cc5ccc(OC(F)F)nc5)CC4)C3)C2)N1` [Example 133, 2-[7-[[6-(difluoromethoxy)-3-pyridyl]methyl]-2-azaspiro[3.5]nonane-2-carbonyl]-8-oxa-2,5-diazaspiro[3.5]nonan-6-one], 13.1 nM; with `O=C1COCC2(CN(C(=O)N3CC4(CCN(Cc5cccc(S(=O)(=O)C(F)(F)F)c5)CC4)C3)C2)N1` [Example 134, 2-[7-(3-triflylbenzyl)-2,7-diazaspiro[3.5]nonane-2-carbonyl]-8-oxa-2,5-diazaspiro[3.5]nonan-6-one], 19.1 nM.

As for `O=C1NC2(CO1)CN(C(=O)N1CC3(CCN(Cc4ccc(C(F)(F)F)cc4F)CC3)C1)C2` [Example 135], the midpoint of inhibition, the IC50, lay at 1.01 nM. For `O=C1CCC2(CN(C(=O)N3CC4(CCN(Cc5cccc(S(=O)(=O)C(F)(F)F)c5)CC4)C3)C2)N1` [Example 136, 2-[7-(3-triflylbenzyl)-2,7-diazaspiro[3.5]nonane-2-carbonyl]-2,5-diazaspiro[3.4]octan-6-one], half-maximal inhibition (IC50) was put at 4.66 nM. As for `O=C1COCC2(CN(C(=O)N3CC4(CC(Cc5ccc(F)cc5F)C4)C3)C2)N1` [Example 137, 2-[6-(2,4-difluorobenzyl)-2-azaspiro[3.3]heptane-2-carbonyl]-8-oxa-2,5-diazaspiro[3.5]nonan-6-one], the figure is 0.97 nM; as for `O=C1COCC2(CN(C(=O)N3CC4(CC(Cc5cnc(C(F)(F)F)cn5)C4)C3)C2)N1` [Example 138, 2-[6-[[5-(trifluoromethyl)pyrazin-2-yl]methyl]-2-azaspiro[3.3]heptane-2-carbonyl]-8-oxa-2,5-diazaspiro[3.5]nonan-6-one], 51 nM.

Turning to `O=C1NC2(CO1)CN(C(=O)N1CC3(CCN(Cc4cccc(S(=O)(=O)C(F)(F)F)c4)CC3)C1)C2` [Example 139, 2-[7-(3-triflylbenzyl)-2,7-diazaspiro[3.5]nonane-2-carbonyl]-7-oxa-2,5-diazaspiro[3.4]octan-6-one], the IC50 was found to be 0.76 nM.

Regarding `O=C1COCC2(CN(C(=O)N3CC4(CC(OCC5(C(F)(F)F)CC5)C4)C3)C2)N1` [Example 140, 2-[6-[[1-(trifluoromethyl)cyclopro-pyl]methoxy]-2-azaspiro[3.3]heptane-2-carbonyl]-8-oxa-2,5-diazaspiro[3.5]nonan-6-one], it took 78.9 nM to reach half-maximal inhibition (IC50).

Regarding `O=C1COCC2(CN(C(=O)N3CC4(CCN(S(=O)(=O)c5ccc(C(F)(F)F)cc5F)CC4)C3)C2)N1` [Example 141, 2-[7-[2-fluoro-4-(trifluoromethyl)phenyl]sulfonyl-2,7-diazaspiro[3.5]nonane-2-carbonyl]-8-oxa-2,5-diazaspiro[3.5]nonan-6-one], 217 nM corresponded to half-maximal inhibition (IC50). With `O=C1COCC2(CN(C(=O)N3CC4(CC(Cc5cc(F)cc(C(F)(F)F)c5)C4)C3)C2)N1` [Example 142] the figure was 0.45 nM; with `O=C1COCC2(CN(C(=O)N3CC4(CC(Cc5ccc(F)cc5C(F)(F)F)C4)C3)C2)N1` [Example 143], 0.07 nM. With `O=C1NC2(CCO1)CN(C(=O)N1CC3(CCN(S(=O)(=O)c4ccc(C(F)(F)F)cc4F)CC3)C1)C2` [Example 144, 2-[7-[2-fluoro-4-(trifluoromethyl)phenyl]sulfonyl-2,7-diazaspiro[3.5]nonane-2-carbonyl]-7-oxa-2,5-diazaspiro[3.5]nonan-6-one] the figure was 2120 nM; with `O=C1COCC2(CN(C(=O)N3CC4(CC(Cc5ccc(C(F)(F)F)cc5F)C4)C3)C2)N1` [Example 145], 0.06 nM; with `O=C1CCC2(CN(C(=O)N3CC4(CCN(Cc5ccc(C(F)(F)F)cn5)CC4)C3)C2)N1` [Example 146, 2-[7-[[5-(trifluoromethyl)-2-pyridyl]methyl]-2,7-diazaspiro[3.5]nonane-2-carbonyl]-2,5-diazaspiro[3.4]octan-6-one], 10.9 nM.
